Results reported in patent US9637483B2, “Heterocyclic compound” (TAKEDA PHARMACEUTICAL COMPANY LIMITED, priority 2013, dated 2017).
Blank lines part the entries; values can stand above or below the molecule they belong to.

Legend:
Format in all cases: biochemical
[1] = target: T1, JAK2 (Homo sapiens, UniProt O60674); assay: JAK2 enzyme inhibition test (LANCE method); details: 1 μM test compound; for inhibition at 1 µM: read-out: JAK2 enzyme inhibitory activity (%, 1 μM)
T1 construct: purchased Invitrogen
T1 sequence (O60674 whole entry): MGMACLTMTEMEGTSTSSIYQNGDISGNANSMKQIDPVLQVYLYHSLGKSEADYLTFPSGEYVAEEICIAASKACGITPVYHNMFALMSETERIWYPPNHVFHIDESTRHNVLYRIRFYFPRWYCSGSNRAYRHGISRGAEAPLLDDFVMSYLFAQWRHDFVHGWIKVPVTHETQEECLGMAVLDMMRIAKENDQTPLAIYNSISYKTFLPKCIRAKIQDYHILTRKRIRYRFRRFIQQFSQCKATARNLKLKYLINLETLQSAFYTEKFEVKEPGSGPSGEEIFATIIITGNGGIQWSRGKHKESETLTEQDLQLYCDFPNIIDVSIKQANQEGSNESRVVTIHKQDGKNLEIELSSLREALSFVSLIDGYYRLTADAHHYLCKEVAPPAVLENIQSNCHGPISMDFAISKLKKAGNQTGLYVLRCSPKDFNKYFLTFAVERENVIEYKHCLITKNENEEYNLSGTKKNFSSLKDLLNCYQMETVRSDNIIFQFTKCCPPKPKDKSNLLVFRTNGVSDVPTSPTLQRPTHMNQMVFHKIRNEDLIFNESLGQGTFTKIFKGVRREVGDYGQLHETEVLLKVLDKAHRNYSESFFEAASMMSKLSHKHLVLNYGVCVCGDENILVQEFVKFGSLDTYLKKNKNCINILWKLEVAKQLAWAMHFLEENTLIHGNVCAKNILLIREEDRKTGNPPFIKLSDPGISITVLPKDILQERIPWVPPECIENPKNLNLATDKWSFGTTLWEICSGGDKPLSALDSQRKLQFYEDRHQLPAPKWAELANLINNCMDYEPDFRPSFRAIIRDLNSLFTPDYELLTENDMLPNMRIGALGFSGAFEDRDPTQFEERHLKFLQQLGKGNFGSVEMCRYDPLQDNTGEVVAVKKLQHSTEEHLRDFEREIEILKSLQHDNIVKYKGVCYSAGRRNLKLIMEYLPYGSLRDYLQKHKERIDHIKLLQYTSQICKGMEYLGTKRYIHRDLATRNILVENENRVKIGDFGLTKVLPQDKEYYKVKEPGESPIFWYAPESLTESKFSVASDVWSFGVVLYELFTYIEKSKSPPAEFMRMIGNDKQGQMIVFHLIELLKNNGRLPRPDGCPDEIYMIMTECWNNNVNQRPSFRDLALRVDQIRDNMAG
Method in brief: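 TR-FRET (LANCE) read-out, ex 340/em 665 nm with 100 μs delay, after 1 hr room-temperature detection with europium anti-phosphotyrosine antibody and 20 mM EDTA. The preceding 1 hr kinase reaction combined JAK2, ULight-JAK1 substrate and ATP, added as 6 ng/mL, 300 nM and 45 μM solutions; enzyme-free wells defined 100% inhibition.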

[2] = target: T2, JAK1 (Homo sapiens, UniProt P23458); assay: JAK1 enzyme inhibition test (LANCE method); details: 1 μM test compound; for inhibition at 1 µM: read-out: JAK1 enzyme inhibitory activity (%, 1 μM)
T2 construct: purchased Invitrogen
T2 sequence (P23458 whole entry): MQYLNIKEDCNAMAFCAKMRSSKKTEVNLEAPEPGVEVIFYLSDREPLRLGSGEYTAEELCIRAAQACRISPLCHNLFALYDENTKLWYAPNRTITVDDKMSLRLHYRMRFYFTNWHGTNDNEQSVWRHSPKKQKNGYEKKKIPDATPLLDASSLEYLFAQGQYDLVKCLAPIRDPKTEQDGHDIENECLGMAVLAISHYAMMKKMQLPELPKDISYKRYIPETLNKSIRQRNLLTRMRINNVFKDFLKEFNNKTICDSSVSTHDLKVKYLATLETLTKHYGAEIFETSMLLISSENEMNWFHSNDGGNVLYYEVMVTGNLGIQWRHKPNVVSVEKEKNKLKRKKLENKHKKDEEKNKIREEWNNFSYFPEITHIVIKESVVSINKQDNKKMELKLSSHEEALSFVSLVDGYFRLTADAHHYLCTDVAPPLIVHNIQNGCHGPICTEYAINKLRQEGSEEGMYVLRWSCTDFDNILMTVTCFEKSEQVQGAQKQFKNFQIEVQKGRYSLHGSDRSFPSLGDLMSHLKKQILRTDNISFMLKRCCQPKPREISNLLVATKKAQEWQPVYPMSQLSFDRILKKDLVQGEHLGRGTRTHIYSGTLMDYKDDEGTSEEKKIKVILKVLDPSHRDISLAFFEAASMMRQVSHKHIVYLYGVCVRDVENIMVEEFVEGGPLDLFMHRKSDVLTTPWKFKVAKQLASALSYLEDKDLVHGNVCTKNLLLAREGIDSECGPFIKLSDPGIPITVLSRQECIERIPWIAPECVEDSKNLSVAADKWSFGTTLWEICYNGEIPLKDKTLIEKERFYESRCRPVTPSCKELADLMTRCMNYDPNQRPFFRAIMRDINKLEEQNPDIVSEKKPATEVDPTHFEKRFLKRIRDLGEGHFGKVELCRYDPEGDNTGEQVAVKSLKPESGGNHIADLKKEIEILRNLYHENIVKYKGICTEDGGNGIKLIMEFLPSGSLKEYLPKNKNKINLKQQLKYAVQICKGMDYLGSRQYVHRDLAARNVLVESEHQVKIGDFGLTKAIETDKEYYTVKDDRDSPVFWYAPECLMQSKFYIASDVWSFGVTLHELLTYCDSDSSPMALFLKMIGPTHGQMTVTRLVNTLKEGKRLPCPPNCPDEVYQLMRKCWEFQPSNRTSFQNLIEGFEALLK
Method in brief: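 Inhibition expressed against no-enzyme wells (100% inhibition), from time-resolved fluorescence at 665 nm after Eu-anti-phosphotyrosine antibody/EDTA detection. Kinase reaction ran 1 h at room temperature, pH 7.5 HEPES buffer, ULight-JAK1 substrate and ATP diluted to 300 nM and 150 μM before addition.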

[3] = target: T3, TYK2 (Homo sapiens, UniProt P29597); assay: TYK2 enzyme inhibition test (LANCE method); details: 1 μM test compound; for inhibition at 1 µM: read-out: TYK2 enzyme inhibitory activity (%, 1 μM)
T3 construct: purchased Invitrogen
T3 sequence (P29597 whole entry): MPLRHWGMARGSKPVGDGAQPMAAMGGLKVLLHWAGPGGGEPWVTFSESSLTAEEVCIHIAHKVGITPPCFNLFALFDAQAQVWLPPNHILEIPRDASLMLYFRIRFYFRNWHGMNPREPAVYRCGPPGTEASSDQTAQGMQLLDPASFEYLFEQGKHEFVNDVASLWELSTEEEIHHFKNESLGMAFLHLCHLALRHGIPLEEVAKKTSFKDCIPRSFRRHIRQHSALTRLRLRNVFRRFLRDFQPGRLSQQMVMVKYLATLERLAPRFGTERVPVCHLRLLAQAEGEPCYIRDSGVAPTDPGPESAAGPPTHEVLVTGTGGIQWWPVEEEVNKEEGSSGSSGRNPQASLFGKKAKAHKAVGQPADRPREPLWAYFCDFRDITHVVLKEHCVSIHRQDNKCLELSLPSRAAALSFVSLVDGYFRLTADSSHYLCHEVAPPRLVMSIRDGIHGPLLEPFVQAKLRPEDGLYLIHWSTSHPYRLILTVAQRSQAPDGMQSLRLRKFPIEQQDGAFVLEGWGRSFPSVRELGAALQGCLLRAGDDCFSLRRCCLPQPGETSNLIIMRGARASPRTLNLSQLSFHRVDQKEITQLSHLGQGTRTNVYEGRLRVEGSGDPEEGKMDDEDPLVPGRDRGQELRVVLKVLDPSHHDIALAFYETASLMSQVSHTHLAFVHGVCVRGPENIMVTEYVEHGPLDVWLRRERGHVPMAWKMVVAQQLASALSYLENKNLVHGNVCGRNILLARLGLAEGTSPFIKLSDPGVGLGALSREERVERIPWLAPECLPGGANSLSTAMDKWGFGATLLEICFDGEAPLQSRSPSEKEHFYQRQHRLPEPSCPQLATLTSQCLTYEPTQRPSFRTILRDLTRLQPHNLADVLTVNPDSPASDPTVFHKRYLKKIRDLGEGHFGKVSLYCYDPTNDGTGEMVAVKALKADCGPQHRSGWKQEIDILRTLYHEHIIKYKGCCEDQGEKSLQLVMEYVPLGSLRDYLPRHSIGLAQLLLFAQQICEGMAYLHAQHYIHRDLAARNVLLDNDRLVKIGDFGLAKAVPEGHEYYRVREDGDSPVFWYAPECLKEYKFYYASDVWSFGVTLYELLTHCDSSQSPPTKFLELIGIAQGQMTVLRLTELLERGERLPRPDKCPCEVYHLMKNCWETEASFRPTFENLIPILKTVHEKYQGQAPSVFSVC
Method in brief: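 TR-FRET (LANCE) readout: after 1 h room-temperature kinase reaction, EDTA plus 4 nM Eu-labelled anti-phosphotyrosine antibody added, signal at 665 nm (340 nm excitation). Reaction combined TYK2, ULight-JAK1 substrate and ATP, prepared at 375 ng/mL, 300 nM and 30 μM before addition, in pH 7.5 HEPES/MgCl2 buffer; enzyme-free wells define full inhibition.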

[4] = target: T4, JAK3 (Homo sapiens, UniProt P52333); assay: JAK3 enzyme inhibition test (LANCE method); details: 1 μM test compound; for inhibition at 1 µM: read-out: JAK3 enzyme inhibitory activity (%, 1 μM)
T4 construct: purchased Invitrogen
T4 sequence (P52333 1-1124): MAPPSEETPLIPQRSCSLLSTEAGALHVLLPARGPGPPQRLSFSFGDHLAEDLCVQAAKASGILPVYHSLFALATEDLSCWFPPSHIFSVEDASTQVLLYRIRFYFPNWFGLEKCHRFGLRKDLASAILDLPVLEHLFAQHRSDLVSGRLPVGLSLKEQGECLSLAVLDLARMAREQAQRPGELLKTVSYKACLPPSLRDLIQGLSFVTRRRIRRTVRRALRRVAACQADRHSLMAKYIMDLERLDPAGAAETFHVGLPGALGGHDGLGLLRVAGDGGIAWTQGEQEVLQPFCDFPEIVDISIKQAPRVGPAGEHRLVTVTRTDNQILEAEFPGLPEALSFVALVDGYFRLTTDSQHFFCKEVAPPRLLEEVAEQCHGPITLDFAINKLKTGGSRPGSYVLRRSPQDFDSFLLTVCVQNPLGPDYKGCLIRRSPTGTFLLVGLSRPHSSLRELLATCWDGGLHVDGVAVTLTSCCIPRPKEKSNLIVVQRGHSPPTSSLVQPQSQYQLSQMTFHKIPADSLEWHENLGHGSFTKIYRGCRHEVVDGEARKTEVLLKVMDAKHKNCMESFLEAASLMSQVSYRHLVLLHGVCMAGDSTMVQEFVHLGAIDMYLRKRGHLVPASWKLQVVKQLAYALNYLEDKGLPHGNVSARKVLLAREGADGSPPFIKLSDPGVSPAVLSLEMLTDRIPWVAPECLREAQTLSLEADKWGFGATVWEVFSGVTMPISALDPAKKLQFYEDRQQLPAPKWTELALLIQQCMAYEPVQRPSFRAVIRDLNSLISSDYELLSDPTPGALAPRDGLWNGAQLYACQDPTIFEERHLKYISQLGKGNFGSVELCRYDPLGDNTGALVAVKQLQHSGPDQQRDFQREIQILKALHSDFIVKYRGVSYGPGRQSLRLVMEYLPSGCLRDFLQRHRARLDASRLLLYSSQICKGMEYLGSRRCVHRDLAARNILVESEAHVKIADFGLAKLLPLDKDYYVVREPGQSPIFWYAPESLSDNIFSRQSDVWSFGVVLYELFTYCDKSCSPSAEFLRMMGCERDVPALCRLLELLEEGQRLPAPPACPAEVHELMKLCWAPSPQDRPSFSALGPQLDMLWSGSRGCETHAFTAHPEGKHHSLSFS
Method in brief: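 TR-FRET (LANCE) read: 1 h room-temperature reaction, EDTA quench, Eu-anti-phosphotyrosine antibody, emission 665 nm after 340 nm excitation. Added solutions held 12 ng/mL JAK3, 300 nM ULight-JAK1 substrate and 15 μM ATP (pH 7.5 HEPES). Activity expressed against no-enzyme wells defined as full inhibition.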

Compound: CN(C)C[C@H]1CCCN1c1cc(-c2cn(C(C3CC3)C3CC3)c(=O)c3c(N)n[nH]c23)nn1C [Example 145, 3-amino-5-(dicyclopropylmethyl)-7-(5-((2R)-2-((dimethylamino)methyl)pyrrolidin-1-yl)-1-methyl-1H-pyrazol-3-yl)-1,5-dihydro-4H-pyrazolo[4,3-c]pyridin-4-one]
inhibition at 1 µM [1]: 98%
inhibition at 1 µM [2]: 89%
inhibition at 1 µM [3]: 100%
inhibition at 1 µM [4]: 99%

Compound: Cn1nc(-c2cn(C(C3CC3)C3CC3)c(=O)c3c(N)n[nH]c23)cc1C1=CCCCC1 [Example 147, 3-amino-7-(5-(cyclohex-1-en-1-yl)-1-methyl-1H-pyrazol-3-yl)-5-(dicyclopropylmethyl)-1,5-dihydro-4H-pyrazolo[4,3-c]pyridin-4-one]
inhibition at 1 µM [1]: 101%
inhibition at 1 µM [2]: 101%
inhibition at 1 µM [3]: 110%
inhibition at 1 µM [4]: 103%

Compound: Cn1nc(-c2cn(C(C3CC3)C3CC3)c(=O)c3c(N)n[nH]c23)cc1C1CCCCC1 [Example 148, 3-amino-7-(5-cyclohexyl-1-methyl-1H-pyrazol-3-yl)-5-(dicyclopropylmethyl)-1,5-dihydro-4H-pyrazolo[4,3-c]pyridin-4-one]
inhibition at 1 µM [1]: 101%
inhibition at 1 µM [2]: 101%
inhibition at 1 µM [3]: 110%
inhibition at 1 µM [4]: 104%

Compound: CN1CCN(c2cc(-c3cn(C(C4CC4)C4CC4)c(=O)c4c(N)n[nH]c34)nn2C)CC1 [Example 149, 3-amino-5-(dicyclopropylmethyl)-7-(1-methyl-5-(4-methylpiperazin-1-yl)-1H-pyrazol-3-yl)-1,5-dihydro-4H-pyrazolo[4,3-c]pyridin-4-one]
inhibition at 1 µM [1]: 99%
inhibition at 1 µM [2]: 100%
inhibition at 1 µM [3]: 106%
inhibition at 1 µM [4]: 101%

Compound: CN1CCCN(c2cc(-c3cn(C(C4CC4)C4CC4)c(=O)c4c(N)n[nH]c34)nn2C)CC1 [Example 150, 3-amino-5-(dicyclopropylmethyl)-7-(1-methyl-5-(4-methyl-1,4-diazepan-1-yl)-1H-pyrazol-3-yl)-1,5-dihydro-4H-pyrazolo[4,3-c]pyridin-4-one]
inhibition at 1 µM [1]: 100%
inhibition at 1 µM [2]: 98%
inhibition at 1 µM [3]: 102%
inhibition at 1 µM [4]: 101%

Compound: Cn1nc(-c2cn(C(C3CC3)C3CC3)c(=O)c3c(N)n[nH]c23)cc1N1C2CCC1COC2 [Example 151, 3-amino-5-(dicyclopropylmethyl)-7-(1-methyl-5-(3-oxa-8-azabicyclo[3.2.1]oct-8-yl)-1H-pyrazol-3-yl)-1,5-dihydro-4H-pyrazolo[4,3-c]pyridin-4-one]
inhibition at 1 µM [1]: 100%
inhibition at 1 µM [2]: 99%
inhibition at 1 µM [3]: 102%
inhibition at 1 µM [4]: 101%

Compound: CC1CCCCC1n1cc(-c2cc(N3CCOCC3)n(C)n2)c2[nH]nc(N)c2c1=O (stereo not drawn) [Example 152, 3-amino-5-(2-methylcyclohexyl)-7-(1-methyl-5-(morpholin-4-yl)-1H-pyrazol-3-yl)-1,5-dihydro-4H-pyrazolo[4,3-c]pyridin-4-one]
inhibition at 1 µM [1]: 101%
JAK1 enzyme inhibitory activity (%, 1 μM) [2]: 100%
inhibition at 1 µM [3]: 102%
inhibition at 1 µM [4]: 101%

Compound: CC1CCCCC1n1cc(-c2cc(N3CCOCC3)n(C)n2)c2[nH]nc(N)c2c1=O (stereo not drawn) [Example 153, 3-amino-5-(2-methylcyclohexyl)-7-(1-methyl-5-(morpholin-4-yl)-1H-pyrazol-3-yl)-1,5-dihydro-4H-pyrazolo[4,3-c]pyridin-4-one]
JAK2 enzyme inhibitory activity (%, 1 μM) [1]: 98%
JAK1 enzyme inhibitory activity (%, 1 μM) [2]: 99%
TYK2 enzyme inhibitory activity (%, 1 μM) [3]: 103%
JAK3 enzyme inhibitory activity (%, 1 μM) [4]: 101%

More lines, now with the values ahead:

JAK2 enzyme inhibitory activity (%, 1 μM) [1]: 99%
JAK1 enzyme inhibitory activity (%, 1 μM) [2]: 96%
TYK2 enzyme inhibitory activity (%, 1 μM) [3]: 99%
JAK3 enzyme inhibitory activity (%, 1 μM) [4]: 99%
Compound: COC1(c2cc(-c3cn(C(C#N)C(C)C)c(=O)c4c(N)n[nH]c34)nn2C)CCC(F)(F)CC1 (stereo not drawn) [Example 138, 2-(3-amino-7-(5-(4,4-difluoro-1-methoxycyclohexyl)-1-methyl-1H-pyrazol-3-yl)-4-oxo-1,4-dihydro-5H-pyrazolo[4,3-c]pyridin-5-yl)-3-methylbutanenitrile]

JAK2 enzyme inhibitory activity (%, 1 μM) [1]: 80%
JAK1 enzyme inhibitory activity (%, 1 μM) [2]: 32%
TYK2 enzyme inhibitory activity (%, 1 μM) [3]: 93%
JAK3 enzyme inhibitory activity (%, 1 μM) [4]: 66%
Compound: COC1(c2cc(-c3cn(C(C#N)C(C)C)c(=O)c4c(N)n[nH]c34)nn2C)CCC(F)(F)CC1 (stereo not drawn) [Example 139, 2-(3-amino-7-(5-(4,4-difluoro-1-methoxycyclohexyl)-1-methyl-1H-pyrazol-3-yl)-4-oxo-1,4-dihydro-5H-pyrazolo[4,3-c]pyridin-5-yl)-3-methylbutanenitrile]

inhibition at 1 µM [1]: 99%
inhibition at 1 µM [2]: 98%
inhibition at 1 µM [3]: 99%
inhibition at 1 µM [4]: 100%
Compound: CN(C)[C@H]1CCN(c2cc(-c3cn(-c4c(F)cccc4F)c(=O)c4c(N)n[nH]c34)nn2C)C1 [Example 140, 3-amino-5-(2,6-difluorophenyl)-7-(5-((3S)-3-(dimethylamino)pyrrolidin-1-yl)-1-methyl-1H-pyrazol-3-yl)-1,5-dihydro-4H-pyrazolo[4,3-c]pyridin-4-one]

inhibition at 1 µM [1]: 99%
inhibition at 1 µM [2]: 98%
inhibition at 1 µM [3]: 100%
inhibition at 1 µM [4]: 100%
Compound: Cn1nc(-c2cn(-c3c(F)cccc3F)c(=O)c3c(N)n[nH]c23)cc1N1CCC(C#N)CC1 [Example 141, 1-(3-(3-amino-5-(2,6-difluorophenyl)-4-oxo-4,5-dihydro-1H-pyrazolo[4,3-c]pyridin-7-yl)-1-methyl-1H-pyrazol-5-yl)piperidine-4-carbonitrile]

inhibition at 1 µM [1]: 98%
inhibition at 1 µM [2]: 98%
inhibition at 1 µM [3]: 98%
inhibition at 1 µM [4]: 99%
Compound: Cn1nc(-c2cn(-c3c(F)cccc3F)c(=O)c3c(N)n[nH]c23)cc1N1CCC[C@@H]1CC#N [Example 142, ((2R)-1-(3-(3-amino-5-(2,6-difluorophenyl)-4-oxo-4,5-dihydro-1H-pyrazolo[4,3-c]pyridin-7-yl)-1-methyl-1H-pyrazol-5-yl)pyrrolidin-2-yl)acetonitrile]

inhibition at 1 µM [1]: 98%
inhibition at 1 µM [2]: 99%
inhibition at 1 µM [3]: 100%
inhibition at 1 µM [4]: 99%
Compound: Cn1nc(-c2cn(-c3c(F)cccc3F)c(=O)c3c(N)n[nH]c23)cc1N1CCOCC1 [Example 143, 3-amino-5-(2,6-difluorophenyl)-7-(1-methyl-5-(morpholin-4-yl)-1H-pyrazol-3-yl)-1,5-dihydro-4H-pyrazolo[4,3-c]pyridin-4-one]

inhibition at 1 µM [1]: 98%
inhibition at 1 µM [2]: 92%
inhibition at 1 µM [3]: 100%
inhibition at 1 µM [4]: 99%
Compound: COC1(c2cc(-c3cn(-c4c(F)cccc4F)c(=O)c4c(N)n[nH]c34)nn2C)CN(S(=O)(=O)C(C)C)C1 [Example 144, 3-amino-5-(2,6-difluorophenyl)-7-(5-(1-(isopropylsulfonyl)-3-methoxyazetidin-3-yl)-1-methyl-1H-pyrazol-3-yl)-1,5-dihydro-4H-pyrazolo[4,3-c]pyridin-4-one]
